According to ChEMBL document CHEMBL5154747, “Discovery of new carbonic anhydrase IX inhibitors as anticancer agents by toning the hydrophobic and hydrophilic rims of the active site to encounter the dual-tail approach” (Eur J Med Chem, 2022):

Legend:
[1] = biological target: Carbonic anhydrase 9 (Homo sapiens, UniProt Q16790); assay: Inhibition of recombinant human CA 9 preincubated for 15 mins by phenol red dye based stopped flow CO2 hydration assay
[2] = system: CCRF-CEM; assay: Anticancer activity against human CCRF-CEM cells assessed as cell growth inhibition at 10 uM incubated for 48 hrs by SRB assay relative to control; format: functional; settings: read-out: GI
[3] = system: HL-60(TB); assay: Anticancer activity against human HL-60(TB) cells assessed as cell growth inhibition at 10 uM incubated for 48 hrs by SRB assay relative to control; format: functional; settings: read-out: GI
[4] = system: K562; assay: Anticancer activity against human K562 cells assessed as cell growth inhibition at 10 uM incubated for 48 hrs by SRB assay relative to control; format: functional; settings: read-out: GI
[5] = system: MOLT-4; assay: Anticancer activity against human MOLT-4 cells assessed as cell growth inhibition at 10 uM incubated for 48 hrs by SRB assay relative to control; format: functional; settings: read-out: GI
[6] = system: RPMI-8226; assay: Anticancer activity against human RPMI-8226 cells assessed as cell growth inhibition at 10 uM incubated for 48 hrs by SRB assay relative to control; format: functional; settings: read-out: GI
[7] = system: SR; assay: Anticancer activity against human SR cells assessed as cell growth inhibition at 10 uM incubated for 48 hrs by SRB assay relative to control; format: functional; settings: read-out: GI
[8] = system: A549; assay: Anticancer activity against human A549 cells assessed as cell growth inhibition at 10 uM incubated for 48 hrs by SRB assay relative to control; format: functional; settings: read-out: GI
[9] = system: HOP-62; assay: Anticancer activity against human HOP-62 cells assessed as cell growth inhibition at 10 uM incubated for 48 hrs by SRB assay relative to control; format: functional; settings: read-out: GI
[10] = system: HOP-92; assay: Anticancer activity against human HOP-92 cells assessed as cell growth inhibition at 10 uM incubated for 48 hrs by SRB assay relative to control; format: functional; settings: read-out: GI
[11] = system: NCI-H226; assay: Anticancer activity against human NCI-H226 cells assessed as cell growth inhibition at 10 uM incubated for 48 hrs by SRB assay relative to control; format: functional; settings: read-out: GI
[12] = system: NCI-H23; assay: Anticancer activity against human NCI-H23 cells assessed as cell growth inhibition at 10 uM incubated for 48 hrs by SRB assay relative to control; format: functional; settings: read-out: GI
[13] = system: NCI-H460; assay: Anticancer activity against human NCI-H460 cells assessed as cell growth inhibition at 10 uM incubated for 48 hrs by SRB assay relative to control; format: functional; settings: read-out: GI
[14] = system: HCC 2998; assay: Anticancer activity against human HCC 2998 cells assessed as cell growth inhibition at 10 uM incubated for 48 hrs by SRB assay relative to control; format: functional; settings: read-out: GI
[15] = system: HCT-116; assay: Anticancer activity against human HCT-116 cells assessed as cell growth inhibition at 10 uM incubated for 48 hrs by SRB assay relative to control; format: functional; settings: read-out: GI
[16] = system: HCT-15; assay: Anticancer activity against human HCT-15 cells assessed as cell growth inhibition at 10 uM incubated for 48 hrs by SRB assay relative to control; format: functional; settings: read-out: GI
[17] = system: KM12; assay: Anticancer activity against human KM12 cells assessed as cell growth inhibition at 10 uM incubated for 48 hrs by SRB assay relative to control; format: functional; settings: read-out: GI
[18] = system: SW-620; assay: Anticancer activity against human SW-620 cells assessed as cell growth inhibition at 10 uM incubated for 48 hrs by SRB assay relative to control; format: functional; settings: read-out: GI
[19] = system: SF-268; assay: Anticancer activity against human SF-268 cells assessed as cell growth inhibition at 10 uM incubated for 48 hrs by SRB assay relative to control; format: functional; settings: read-out: GI
[20] = system: SF-539; assay: Anticancer activity against human SF-539 cells assessed as cell growth inhibition at 10 uM incubated for 48 hrs by SRB assay relative to control; format: functional; settings: read-out: GI
[21] = system: SNB-75; assay: Anticancer activity against human SNB-75 cells assessed as cell growth inhibition at 10 uM incubated for 48 hrs by SRB assay relative to control; format: functional; settings: read-out: GI
[22] = system: U-251; assay: Anticancer activity against human U-251 cells assessed as cell growth inhibition at 10 uM incubated for 48 hrs by SRB assay relative to control; format: functional; settings: read-out: GI
[23] = system: MDA-MB-435; assay: Anticancer activity against human MDA-MB-435 cells assessed as cell growth inhibition at 10 uM incubated for 48 hrs by SRB assay relative to control; format: functional; settings: read-out: GI
[24] = system: SK-MEL-2; assay: Anticancer activity against human SK-MEL-2 cells assessed as cell growth inhibition at 10 uM incubated for 48 hrs by SRB assay relative to control; format: functional; settings: read-out: GI
[25] = system: SK-MEL-5; assay: Anticancer activity against human SK-MEL-5 cells assessed as cell growth inhibition at 10 uM incubated for 48 hrs by SRB assay relative to control; format: functional; settings: read-out: GI
[26] = system: UACC-257; assay: Anticancer activity against human UACC-257 cells assessed as cell growth inhibition at 10 uM incubated for 48 hrs by SRB assay relative to control; format: functional; settings: read-out: GI
[27] = system: UACC-62; assay: Anticancer activity against human UACC-62 cells assessed as cell growth inhibition at 10 uM incubated for 48 hrs by SRB assay relative to control; format: functional; settings: read-out: GI
[28] = system: OVCAR-3; assay: Anticancer activity against human OVCAR-3 cells assessed as cell growth inhibition at 10 uM incubated for 48 hrs by SRB assay relative to control; format: functional; settings: read-out: GI
[29] = system: OVCAR-5; assay: Anticancer activity against human OVCAR-5 cells assessed as cell growth inhibition at 10 uM incubated for 48 hrs by SRB assay relative to control; format: functional; settings: read-out: GI
[30] = system: NCI/ADR-RES; assay: Anticancer activity against human NCI/ADR-RES cells assessed as cell growth inhibition at 10 uM incubated for 48 hrs by SRB assay relative to control; format: functional; settings: read-out: GI
[31] = system: A498; assay: Anticancer activity against human A498 cells assessed as cell growth inhibition at 10 uM incubated for 48 hrs by SRB assay relative to control; format: functional; settings: read-out: GI
[32] = system: ACHN; assay: Anticancer activity against human ACHN cells assessed as cell growth inhibition at 10 uM incubated for 48 hrs by SRB assay relative to control; format: functional; settings: read-out: GI
[33] = system: CAKI-1; assay: Anticancer activity against human CAKI-1 cells assessed as cell growth inhibition at 10 uM incubated for 48 hrs by SRB assay relative to control; format: functional; settings: read-out: GI
[34] = system: PC-3; assay: Anticancer activity against human PC-3 cells assessed as cell growth inhibition at 10 uM incubated for 48 hrs by SRB assay relative to control; format: functional; settings: read-out: GI
[35] = system: MCF7; assay: Anticancer activity against human MCF7 cells assessed as cell growth inhibition at 10 uM incubated for 48 hrs by SRB assay relative to control; format: functional; settings: read-out: GI
[36] = system: MDA-MB-231; assay: Anticancer activity against human MDA-MB-231 cells assessed as cell growth inhibition at 10 uM incubated for 48 hrs by SRB assay relative to control; format: functional; settings: read-out: GI
[37] = system: BT-549; assay: Anticancer activity against human BT-549 cells assessed as cell growth inhibition at 10 uM incubated for 48 hrs by SRB assay relative to control; format: functional; settings: read-out: GI
[38] = system: T47D; assay: Anticancer activity against human T47D cells assessed as cell growth inhibition at 10 uM incubated for 48 hrs by SRB assay relative to control; format: functional; settings: read-out: GI
[39] = system: MDA-MB-468; assay: Anticancer activity against human MDA-MB-468 cells assessed as cell growth inhibition at 10 uM incubated for 48 hrs by SRB assay relative to control; format: functional; settings: read-out: GI
[40] = system: OVCAR-4; assay: Anticancer activity against human OVCAR-4 cells assessed as cell growth inhibition at 10 uM incubated for 48 hrs by SRB assay relative to control; format: functional; settings: read-out: GI

Compound | Ki [1] [nM] | inhibition of growth at 10 µM [2] [%] | inhibition of growth at 10 µM [3] [%] | inhibition of growth at 10 µM [4] [%] | inhibition of growth at 10 µM [5] [%] | inhibition of growth at 10 µM [6] [%] | inhibition of growth at 10 µM [7] [%] | inhibition of growth at 10 µM [8] [%] | inhibition of growth at 10 µM [9] [%] | inhibition of growth at 10 µM [10] [%] | inhibition of growth at 10 µM [11] [%] | inhibition of growth at 10 µM [12] [%] | inhibition of growth at 10 µM [13] [%] | inhibition of growth at 10 µM [14] [%] | inhibition of growth at 10 µM [15] [%] | inhibition of growth at 10 µM [16] [%] | inhibition of growth at 10 µM [17] [%] | inhibition of growth at 10 µM [18] [%] | inhibition of growth at 10 µM [19] [%] | inhibition of growth at 10 µM [20] [%] | also measured
NS(=O)(=O)c1ccc(Nc2nc(N/N=C/c3ccc(C(F)(F)F)cc3)nc(Nc3ccccc3)n2)cc1 | 29.7 | 88 | 51 | 82 | 90 | 105 | 92 | 72 | 61 | 42 | 63 | 47 | 85 | 46 | 90 | 68 | 78 | 45 | 49 | 76 | inhibition of growth at 10 µM [21]: 58%; inhibition of growth at 10 µM [22]: 81%; inhibition of growth at 10 µM [23]: 80%; inhibition of growth at 10 µM [24]: 71%; inhibition of growth at 10 µM [25]: 65%; inhibition of growth at 10 µM [26]: 60%; inhibition of growth at 10 µM [27]: 85%; inhibition of growth at 10 µM [28]: 88%; inhibition of growth at 10 µM [29]: 32%; inhibition of growth at 10 µM [30]: 12%; inhibition of growth at 10 µM [31]: 60%; inhibition of growth at 10 µM [32]: 60%; inhibition of growth at 10 µM [33]: 66%; inhibition of growth at 10 µM [34]: 85%; inhibition of growth at 10 µM [35]: 89%; inhibition of growth at 10 µM [36]: 73%; inhibition of growth at 10 µM [37]: 51%; inhibition of growth at 10 µM [38]: 68%; inhibition of growth at 10 µM [39]: 65%; inhibition of growth at 10 µM [40]: 59%
NS(=O)(=O)c1ccc(Nc2nc(N/N=C/c3ccc4c(c3)OCO4)nc(Nc3ccccc3)n2)cc1 | 29.3 | 83 | 68 | 66 | 88 | 45 | 79 | 25 | 70 | 33 | 34 | 74 | 97 | 76 | 63 | 17 | 29 | 50 | 57 | 83 | inhibition of growth at 10 µM [21]: 46%; inhibition of growth at 10 µM [22]: 44%; inhibition of growth at 10 µM [23]: 40%; inhibition of growth at 10 µM [24]: 44%; inhibition of growth at 10 µM [25]: 45%; inhibition of growth at 10 µM [26]: 15%; inhibition of growth at 10 µM [27]: 21%; inhibition of growth at 10 µM [28]: 51%; inhibition of growth at 10 µM [29]: < 10%; inhibition of growth at 10 µM [30]: < 10%; inhibition of growth at 10 µM [31]: 48%; inhibition of growth at 10 µM [32]: 42%; inhibition of growth at 10 µM [33]: 54%; inhibition of growth at 10 µM [34]: 40%; inhibition of growth at 10 µM [35]: 81%; inhibition of growth at 10 µM [36]: 40%; inhibition of growth at 10 µM [37]: 23%; inhibition of growth at 10 µM [38]: 45%; inhibition of growth at 10 µM [39]: 53%; inhibition of growth at 10 µM [40]: 44%
CN(C)c1ccc(/C=N/Nc2nc(Nc3ccccc3)nc(Nc3ccc(S(N)(=O)=O)cc3)n2)cc1 | 13.3 | 53 | 29 | 39 | 44 | 52 | 29 | 26 | 12 | < 10 | 21 | 13 | < 10 | < 10 | 45 | 20 | 33 | 17 | 10 | 59 | inhibition of growth at 10 µM [21]: 12%; inhibition of growth at 10 µM [22]: 32%; inhibition of growth at 10 µM [23]: 11%; inhibition of growth at 10 µM [24]: 18%; inhibition of growth at 10 µM [25]: 14%; inhibition of growth at 10 µM [26]: < 10%; inhibition of growth at 10 µM [27]: < 10%; inhibition of growth at 10 µM [28]: 14%; inhibition of growth at 10 µM [29]: < 10%; inhibition of growth at 10 µM [30]: < 10%; inhibition of growth at 10 µM [31]: 14%; inhibition of growth at 10 µM [32]: 15%; inhibition of growth at 10 µM [33]: < 10%; inhibition of growth at 10 µM [34]: 38%; inhibition of growth at 10 µM [35]: 40%; inhibition of growth at 10 µM [36]: 13%; inhibition of growth at 10 µM [37]: < 10%; inhibition of growth at 10 µM [38]: 52%; inhibition of growth at 10 µM [39]: 14%; inhibition of growth at 10 µM [40]: < 10%
